The results in this text go back to PubChem BioAssay (NCI).

Holding throughout (assay): inhibition of tumour cell growth, NCI panel, 48 h
The subject of experiment [1] is PC-3 prostate.
Experiment [2] concerns NCI/ADR-RES ovarian.
Experiment [3] has as its system CCRF-CEM leukemia.
In experiment [4] the test system is SNB-19 CNS.
In experiment [5] the test system is SNB-75 CNS.
The test system of experiment [6] is RPMI-8226 leukemia.
Experiment [7] deals with SK-OV-3 ovarian.
The test system of experiment [8] is 786-0 renal.
Experiment [9] deals with NCI-H522 lung.
For experiment [10], the system named is UACC-62 melanoma.

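Results reflect a 48-hour exposure of cells in 96-well plates to compound at five concentrations. Here, GI50 denotes the concentration required for 50% inhibition of growth. TGI is the concentration that stops growth completely.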

Take `O=C1c2c(F)c(F)c(F)c(F)c2C(=O)N1c1ccc(F)cc1F`: the GI50 in experiment [1] was 6.21 µM; in experiment [2] it was 7.55 µM; in experiment [3], 0.958 µM; in [4], 16.8 µM; in [5], 12.7 µM; in [6], 3.81 µM. Further, the GI50 is 20.7 µM in experiment [7], 11 µM in experiment [8], 6.58 µM in [9] and 4.11 µM in experiment [10]. The TGI in experiment [1] worked out at 27.2 µM; in experiment [2], 30.5 µM; in experiment [3] it was 6.82 µM; in experiment [4] it was 39.8 µM; in [5], 34.6 µM; in experiment [6], 65.4 µM. For the same molecule, the TGI in [7] is 50.2 µM; in experiment [8], greater than 43.8 µM; in experiment [9] it was greater than 25 µM; in [10] it was 14.3 µM.
In the case of `O=C1OCC2=C1C(c1cccc(Br)c1)c1cc3c(cc1N2CCO)OCCO3` (stereo not given), the GI50 in experiment [1] is 0.0546 µM; in [2] it was 0.0635 µM; in [3] it was 0.0763 µM; in experiment [4] it was 0.0846 µM; in experiment [5], 0.0397 µM; in experiment [6], 0.0714 µM. Besides, the GI50 in experiment [7] is 0.067 µM; in [8], 0.0695 µM; in [9], 0.0116 µM; in experiment [10], 0.022 µM. The TGI is 8.74 µM in experiment [1]; 0.273 µM in experiment [2]; greater than 26.3 µM in experiment [3]; greater than 50 µM in experiment [4]; greater than 35.4 µM in experiment [5]; 14 µM in [6]. Besides, the TGI is 4.04 µM in experiment [7], 3.66 µM in experiment [8], 0.0478 µM in experiment [9] and greater than 23.7 µM in experiment [10].
With `COC(=O)[C@]12CC[C@@H](C)[C@H](C)[C@@H]1C1=CC[C@@H]3[C@@]4(C)C[C@@H](O)[C@H](O)[C@@](C)(CO)[C@@H]4[C@H](O)C[C@@]3(C)[C@]1(C)CC2`, the GI50 in [1] was 3.63 µM; in experiment [2], 15.5 µM; in [3] it was 7.77 µM; in experiment [4], 13.2 µM; in experiment [5], 12.3 µM; in experiment [6] it was 5.18 µM. In addition, the GI50 in [7] was 19.4 µM; in experiment [8] it was 11.5 µM; in experiment [9] it was 20.9 µM; in experiment [10], 10.1 µM. Besides, the TGI in experiment [1] came to 15.6 µM; in experiment [2] it was 35.1 µM; in [3] it was 36.9 µM; in experiment [4], 38.9 µM; in experiment [5] it was 28.1 µM; in experiment [6], 31.3 µM. The TGI in experiment [7] came out at 33.5 µM; in experiment [8] it was 31.6 µM; in experiment [9], 43.3 µM; in [10], 23.6 µM.
In the case of `O=C1NC(=NCc2ccccc2)S/C1=C\c1ccc2ncccc2c1`, the GI50 is greater than 25 µM in experiment [1]; greater than 25 µM in experiment [2]; greater than 17.1 µM in [3]; greater than 25 µM in [4]; greater than 25 µM in experiment [5]; greater than 25 µM in experiment [6]. In addition, the GI50 was greater than 25 µM in experiment [7], greater than 25 µM in experiment [8], greater than 15.5 µM in experiment [9] and greater than 25 µM in [10]. In addition, the TGI in [1], in [2], in [3], in experiment [4], in experiment [5] and in [6] was greater than 25 µM each time. The TGI in experiment [7], in [8], in experiment [9] and in experiment [10] was greater than 25 µM each time.
Regarding `COc1c2ccccc2c(OC)c2[nH]c(=O)ccc12`, the GI50 was 5.53 µM in experiment [1]; 6.51 µM in experiment [2]; greater than 24.5 µM in [3]; 2.02 µM in experiment [4]; 3.2 µM in [5]; 12.6 µM in experiment [6]. Moreover, the GI50 in [7] is 65.1 µM; in experiment [8], 56.1 µM; in experiment [9], 7.73 µM; in experiment [10] it was 1.65 µM. Besides, the TGI in experiment [1] is greater than 43.7 µM; in [2] it was greater than 100 µM; in experiment [3], greater than 100 µM; in [4], 4.11 µM; in [5] it was greater than 21.9 µM; in [6] it was greater than 100 µM. In addition, the TGI in [7] was greater than 100 µM; in [8], greater than 100 µM; in experiment [9] it was greater than 100 µM; in experiment [10] it was 3.33 µM.
Take `c1ccc(Nc2ncc(-c3ccccc3)o2)cc1`: the GI50 in [1] was greater than 23.2 µM; in experiment [2], greater than 25 µM; in [3], greater than 25 µM; in experiment [4], greater than 25 µM; in experiment [5], greater than 24.1 µM; in experiment [6], greater than 25 µM. Also, the GI50 in experiment [7], in [8], in [9] and in experiment [10] was greater than 25 µM each time. The TGI in experiment [1], in [2], in experiment [3], in experiment [4], in [5] and in experiment [6] was greater than 25 µM each time. The TGI in experiment [7], in experiment [8], in experiment [9] and in experiment [10] was greater than 25 µM in each case.
Regarding `NC(=S)N/N=C1\c2cc(Cl)ccc2-c2c1cc(Cl)cc2[N+](=O)[O-]`, the GI50 in experiment [1] is 3.21 µM; in [2], 4.76 µM; in [3], 3.43 µM; in experiment [4] it was 4.24 µM; in experiment [5], 2.84 µM; in experiment [6], 3.44 µM. The GI50 was 9.4 µM in experiment [7], 5.41 µM in experiment [8], 4.11 µM in [9] and 3.16 µM in experiment [10]. For the same molecule, the TGI in experiment [1] was greater than 100 µM; in experiment [2] it was greater than 100 µM; in [3], greater than 100 µM; in experiment [4] it was greater than 100 µM; in [5], 28.3 µM; in experiment [6] it was 20.5 µM. Besides, the TGI is greater than 100 µM in experiment [7], 91.3 µM in experiment [8], 48.6 µM in experiment [9] and greater than 100 µM in experiment [10].
